According to patent publication US8653022B2, “Use of ghrelin splice variant for treating hypercholesterolemia and/or high cholesterol and/or high cholesterol complication and/or lipemia and/or lipemia complication and/or coronary heart disease and/or weight management and/or diabetes and/or hyperglycemia” (priority 2006, dated 2014):
Ends that are not written are not given here. * marks the point of attachment. Octanoyl = CCCCCCCC(=O)*

What was measured:
[1] = Serum cholesterol and lipid levels (cholesterol, triglycerides, LDL, HDL) after subcutaneous administration in 129Sv mice; assay type: in vivo; conditions: 129Sv male mice, subcutaneous once daily, n=10 per group; for Reduced levels of cholesterol (serum cholesterol concentration): compared to vehicle-administered controls
From the text: FIG. 1A is a bar graph showing serum cholesterol concentration after subcutaneous administration of acylated ghrelin splice variant (acylated SEQ ID NO:2) or un-acylated ghrelin splice variant (SEQ ID NO:2) compared to SEQ ID NO:3 and vehicle-administered controls in 129Sv mice. Reduced levels of cholesterol in the acylated ghrelin splice variant (acylated SEQ ID NO:2) and un-acylated ghrelin splice variant (SEQ ID NO:2) treated groups were observed (5% & 6%, respectively).
(§1) Acylated ghrelin splice variant (20 μg; 29 amino acids in length (SEQ ID NO:2)) or the Vehicle (1.6% mannitol) was administered once daily for 14 successive days, via the subcutaneous (SC) route, to groups comprising n=10 129Sv male mice. No mortality occurred in any of the animals throughout the entire study period. […] All animals were subjected to terminal bleeding, under CO2 anesthesia, immediately prior to euthanasia. Terminal blood collection was performed serially as per animal number, and not as per group. • Hematology: Blood samples (at least 100 μl) were collected into pre-labeled EDTA coated tubes. The tubes were pre-labeled and contain the following information:
Study number, group number, animal number and date. The samples were kept until delivery and analysis at 2-8 ° C. Hematology parameters that were tested using Sysmex KX-21™are: WBC, RBC, HGB, HCT, MCV, MCH, MCHC, Platelets. Differential count was preformed manually. • Biochemistry: Blood for biochemistry analysis was collected into non-coated pre-labeled tubes. The tubes were pre-labeled and contained the following information: Study number, group number, animal number and date. Following clotting, the blood from each animal was centrifuged, and the serum was collected into two pre-labeled tubes and submitted for analysis as follows: Serum, 250 μl, was kept at 2-8° C. until analysis. The samples were subjected to the following listed tests using Hitachi 917 system: Creatinine, Total bilirubin, Glucose, Triglycerides, Cholesterol, HDL, LDL, Total protein, Globulin, Albumin, Urea, Potassium, Phosphorus, Calcium, Sodium, Chloride, sGOT, SGPT, ALP. • Urinalysis: Urine was collected into pre-labeled tubes (as above) from all animals (where possible) prior to and/or after euthanasia. For all surviving animals, urine collection was performed serially as per animal number, and not as per group. An attempt was made to attain the maximal amount as possible to perform the tests listed below. Urinalysis is performed using a commercial test stick (Bayer, Multistix® 10SG) applied to urine sample and evaluating the following parameters: glucose, ketone, pH value, leukocytes, blood, density, nitrite, bilirubin, urobilinogen and protein. • Necropsy Procedures and Macroscopic Examination: All animals were subjected to a fully detailed necropsy. For all surviving animals, necropsy was performed serially as per animal number, and not as per group, immediately following the scheduled terminal bleeding. At necropsy, a thorough examination is made and any abnormality or gross pathological changes in tissues and/or organs are observed and recorded. • Organ/Tissue Collection: The organs and tissues listed (Brain, Liver, Kidney, Stomach, Pancreas, Lungs, Spleen, Heart, Epididymal WAT, Retroperitoneal WAT, Interscapular BAT) were excised and weighed wet as soon as possible after excision and removal of the attached fat and other connective tissues. All organs from one animal were collected into one container, pre-labeled with the following information: Study number, group number, animal number and date. • Results: Reduced levels of cholesterol in the acylated ghrelin splice variant and un-acylated ghrelin splice variant treated groups were observed (5% & 6%, respectively; See FIG. 1A). Reduced levels of HDL in the acylated ghrelin splice variant and un-acylated ghrelin splice variant treated groups (5% & 6%, respectively; see FIG. 1B).

[2] = Plasma glucose level after 7 day treatment in 129Sv mice; assay type: in vivo; conditions: 129 male mice, 7.2 mg/kg peptide, end of study
From the text: FIG. 3A is a bar graph showing percentage of plasma glucose reduction after 7 day treatment with acylated ghrelin splice variant peptides (acylated SEQ ID NO:2, SEQ ID NO:3 and SEQ ID NO:4) or ghrelin in 129Sv mice. The percent reduction is 3.2%; 2% and 4.8% respectively while treatment with ghrelin increased plasma glucose level by 1.3%.
FIG. 3B is a bar graph showing plasma glucose levels after 7 day treatment with acylated ghrelin splice variant peptides (acylated SEQ ID NO:2, SEQ ID NO:3 and SEQ ID NO:4) or ghrelin. 129 male mice were treated for seven days with 7.2 mg/kg peptide. Plasma glucose levels were measured at the end of the study.

[3] = Mortality and clinical signs during subcutaneous administration study; assay type: in vivo, 129Sv mice; conditions: 20 μg once daily for 14 successive days, 129Sv male mice, n=10
Protocol: as §1, with “information: […]” for “information:”

[4] = Cumulative body weight gain after once-daily subcutaneous treatment in 129Sv mice; assay type: in vivo; conditions: male wild-type 129Sv mice, once daily for seven days, 72 mg/kg subcutaneously, n=8 per group
Protocol: FIG. 2 is a line graph showing cumulative body weight gain of un-acylated ghrelin splice variant-treated (SEQ ID NO:2) 129Sv mice compared to vehicle-treated controls. Un-acylated ghrelin splice variant reduces body weight gain in male wild-type mice (n=8 per group). In mice treated once daily for seven days with un-acylated ghrelin splice variant (72 mg/kg, subcutaneously), cumulative weight gain of the SEQ ID NO:2 group was 25% times less than the vehicle-injected control animals.

GSSFLSPEHQRVQVRPPHKAPHVVPALPL (not fully specified; listed as Homo sapiens) [acylated SEQ ID NO:2, 29 amino acid human ghrelin splice variant, acylated]
Increased levels of triglycerides ([1]; compared to vehicle): 9%
LDL levels (in words) ([1]; compared to vehicle): remained unchanged
Reduced levels of HDL ([1]; compared to vehicle, listed as acylated ghrelin splice variant): 5%
Reduced levels of cholesterol (serum cholesterol concentration) ([1]; listed as acylated ghrelin splice variant): 5%
Percentage of plasma glucose reduction [2]: 3.2%
Clinical signs [3]: No clinical signs
Mortality [3]: No mortality

GSSFLSPEHQRVQVRPPHKAPHVVPALPL (listed as Homo sapiens) [un-acylated ghrelin splice variant, 29 amino acid human ghrelin splice variant, un-acylated]
Level of triglycerides (in words) ([1]; compared to vehicle): remained unchanged
Reduced levels of HDL ([1]; compared to vehicle): 6%
Reduced levels of cholesterol (serum cholesterol concentration) [1]: 6%
Cumulative weight gain less than the vehicle-injected control animals [4]: 25%

GSS (CO-C7H15) FLSPEHQRVQVRPPHKAPH (GSS(Octanoyl)FLSPEHQRVQVRPPHKAPH; listed as Homo sapiens) [SEQ ID NO:3, 22 amino acid human ghrelin splice variant, acylated]
Increased levels of triglycerides ([1]; compared to vehicle): 15%
Percentage of plasma glucose reduction [2]: 2%

ghrelin: polypeptide of GenBank NP_057446; mature 28 amino acid peptide bearing n-octanoyl on the third serine (GSS(Octanoyl)FLSPEHQRVQQRKESKKPPAKLQPR; UniProt Q9UBU3 24-51, looked up) [reference compound]
Increase of plasma glucose level [2]: 1.3%

GSSFLSPEHQRVQVRPPHKAPHVV (also: acylated (site not given here); listed as Homo sapiens) [SEQ ID NO:4, acylated 24 amino acid human ghrelin splice variant]
Percentage of plasma glucose reduction [2]: 4.8%
